Test results: ChEMBL document CHEMBL1156104, “Synthesis and anticancer activity of novel amide derivatives of non-acetal deoxoartemisinin” (Bioorg Med Chem Lett, 2009)

Columns and labels:
[1] = test system: SK-MEL-2; assay: Anticancer activity against human SK-MEL-2 cells by sulforhodamine B assay; assay type: functional, cell-based
[2] = test system: SK-OV-3; assay: Anticancer activity against human SKOV3 cells by sulforhodamine B assay; assay type: functional, cell-based
[3] = test system: A549; assay: Anticancer activity against human A549 cells by sulforhodamine B assay; assay type: functional, cell-based
[4] = test system: HCT-15; assay: Anticancer activity against human HCT15 cells by sulforhodamine B assay; assay type: functional, cell-based
[5] = test system: XF498; assay: Anticancer activity against human XF498 cells by sulforhodamine B assay; assay type: functional, cell-based
[6] = organism: Mus musculus; assay: Antiangiogenic activity in mouse assessed as inhibition of VEGF-induced angiogenesis at 10 uM by Matrigel plug assay; assay type: functional

Row | Structure (SMILES) | IC50 [1] | IC50 [2] | IC50 [3] | IC50 [4] | IC50 [5] | inhibition (INH) [6]
1 | C[C@@H]1CCC2[C@@H](C)[C@@H](CCC(=O)NCCCN3CCN(CCCNC(=O)CC[C@H]4O[C@@H]5O[C@]6(C)CC[C@H]7[C@H](C)CCC([C@H]4C)[C@@]57OO6)CC3)O[C@@H]3O[C@]4(C)CC[C@@H]1[C@@]23OO4 (stereo not given in full) | 0.45 µM | 0.63 µM | 0.85 µM | 0.84 µM | 0.46 µM | –
2 | C[C@@H]1CCC2[C@@H](C)[C@@H](CCC(=O)NCc3ccccc3)O[C@@H]3O[C@]4(C)CC[C@@H]1[C@@]23OO4 (stereo not given in full) | 8.36 µM | 4.75 µM | 5.13 µM | 6.22 µM | 3.46 µM | –
3 | C[C@@H]1CC[C@H]2[C@H](CBr)CO[C@@H]3O[C@]4(C)CC[C@@H]1[C@]32OO4 | 14.2 µM | 15.4 µM | 11.2 µM | 11.2 µM | 16.4 µM | 95%
4 | C[C@@H]1CCC2[C@@H](C)[C@@H](CCNC(=O)CC[C@H]3O[C@@H]4O[C@]5(C)CC[C@H]6[C@H](C)CCC([C@H]3C)[C@@]46OO5)O[C@@H]3O[C@]4(C)CC[C@@H]1[C@@]23OO4 (stereo not given in full) | 9.94 µM | 4.36 µM | 7.63 µM | 7.83 µM | 5.76 µM | –
5 | CO[C@H]1O[C@@H]2O[C@@]3(C)CC[C@H]4[C@H](C)CC[C@@H]([C@H]1C)[C@@]24OO3 [ARTEMETHER] | 7.24 µM | 8.03 µM | 8.54 µM | 9.66 µM | 9.1 µM | –
6 | C[C@@H]1CCC2[C@@H](C)[C@@H](CCNC(=O)CC[C@H](NC(=O)CC[C@H]3O[C@@H]4O[C@]5(C)CC[C@H]6[C@H](C)CCC([C@H]3C)[C@@]46OO5)C(=O)NCC[C@H]3O[C@@H]4O[C@]5(C)CC[C@H]6[C@H](C)CCC([C@H]3C)[C@@]46OO5)O[C@@H]3O[C@]4(C)CC[C@@H]1[C@@]23OO4 (stereo not given in full) | 18.2 µM | 12.4 µM | 13.5 µM | 19.8 µM | 11.6 µM | 80%
7 | COc1cccc2c1C(=O)c1c(O)c3c(c(O)c1C2=O)C[C@@](O)(C(=O)CO)C[C@@H]3O[C@H]1C[C@H](N)[C@H](O)[C@H](C)O1 [DOXORUBICIN] | 0.028 µM | 0.046 µM | 0.075 µM | – | – | –
8 | C[C@@H]1CC[C@H]2[C@@H](C)C(=O)O[C@@H]3O[C@@]4(C)CC[C@@H]1[C@]32OO4 [ARTEMISININ] | 12.9 µM | 14.3 µM | 15.2 µM | 17.2 µM | 16.2 µM | –
9 | C[C@@H]1CCC2[C@@H](C)[C@@H](CCC(=O)N3CCC(Cc4ccccc4)CC3)O[C@@H]3O[C@]4(C)CC[C@@H]1[C@@]23OO4 (stereo not given in full) | 1.25 µM | 1.65 µM | 1.35 µM | 1.45 µM | 1.95 µM | –
10 | COC(=O)[C@@H](CS)N(Cc1ccccc1)C(=O)CC[C@H]1O[C@@H]2O[C@]3(C)CC[C@H]4[C@H](C)CCC([C@H]1C)[C@@]24OO3 (stereo not given in full) | 3.15 µM | 2.35 µM | 3.12 µM | 1.54 µM | 2.66 µM | –
11 | C[C@H]1[C@@H](CCSCC[C@H]2O[C@@H]3O[C@]4(C)CC[C@H]5[C@H](C)CCC([C@H]2C)[C@@]35OO4)O[C@@H]2O[C@]3(C)CCC4[C@H](C)CC[C@@H]1[C@]42OO3 (stereo not given in full) | 7.56 µM | 4.86 µM | 5.63 µM | 3.53 µM | 5.44 µM | –
12 | C[C@H]1[C@@H](O)O[C@@H]2O[C@@]3(C)CC[C@H]4[C@H](C)CC[C@@H]1[C@@]24OO3 [ARTENIMOL] | 0.75 µM | 0.85 µM | 0.63 µM | 0.46 µM | 0.54 µM | –
